Test results taken from ChEMBL document CHEMBL3046390, “Multifunctionalised benzoxazinones in the systems Oryza sativa-Echinochloa crus-galli and Triticum aestivum-Avena fatua as natural-product-based herbicide leads” (Pest Manag Sci, 2010).
The source made the active and inactive calls. The calls are words filed in the database; no cut-off is given here.

Tests used:
Echinochloa crus-galli [1] = test: Herbicidal activity against Echinochloa crus-galli (barnyard grass) assessed as inhibition of shoot length at 0.05 uM to 1 mM after 5 days relative to control; type: functional, organism-based
Triticum aestivum [2] = test: Phytotoxicity against Triticum aestivum (wheat) assessed as inhibition of seed germination at 10 uM to 1 mM after 5 days relative to control; type: organism-based; conditions: in vivo, 120 h
Oryza sativa [3] = test: Phytotoxicity against Oryza sativa (rice) assessed as inhibition of seed germination at 10 uM to 1 mM after 7 days relative to control; type: organism-based; conditions: in vivo, 168 h
Echinochloa crus-galli [4] = test: Herbicidal activity against Echinochloa crus-galli (barnyard grass) assessed as inhibition of root length after 5 days relative to control; type: functional, organism-based; conditions: 120 h
Avena fatua [5] = test: Herbicidal activity against Avena fatua assessed as inhibition of root length after 5 days relative to control; type: functional, organism-based; conditions: 120 h
[6] = Selectivity idex, ratio of IC50 for root elongation in Oryza sativa to IC50 for root elongation in Echinochloa crus-galli
Avena fatua [7] = test: Herbicidal activity against Avena fatua assessed as inhibition of shoot length at 0.05 uM to 1 mM after 5 days relative to control; type: functional, organism-based
Echinochloa crus-galli [8] = test: Herbicidal activity against Echinochloa crus-galli (barnyard grass) assessed as inhibition of seed germination at 0.05 uM to 1 mM after 5 days relative to control; type: functional, organism-based
Triticum aestivum [9] = test: Phytotoxicity against Triticum aestivum (wheat) assessed as inhibition of root elongation after 5 days relative to control; type: organism-based; conditions: 120 h
[10] = Selectivity idex, ratio of IC50 for root elongation in Triticum aestivum to IC50 for root elongation in Avena fatua
Oryza sativa [11] = test: Phytotoxicity against Oryza sativa (rice) assessed as inhibition of root elongation after 7 days relative to control; type: organism-based; conditions: 168 h
Avena fatua [12] = test: Herbicidal activity against Avena fatua assessed as inhibition of seed germination at 0.05 uM to 1 mM after 5 days relative to control; type: functional, organism-based
Avena fatua [13] = test: Herbicidal activity against Avena fatua assessed as inhibition of root elongation at 114 uM after 5 days relative to control; type: functional; conditions: 120 h
[14] = Phytotoxicity against Triticum aestivum (wheat) assessed as inhibition of root elongation at 114 uM after 5 days relative to control; type: organism-based; conditions: in vivo
Avena fatua [15] = test: Herbicidal activity against Avena fatua assessed as inhibition of root elongation at 6 uM after 5 days relative to control; type: functional; conditions: 120 h
Echinochloa crus-galli [16] = test: Ratio of Contanil IC50 to compound IC50 for root elongation in Echinochloa crus-galli (barnyard grass); type: functional
[17] = Phytotoxicity against Triticum aestivum (wheat) assessed as inhibition of root elongation at 6 uM after 5 days relative to control; type: organism-based; conditions: in vivo
Echinochloa crus-galli [18] = test: Herbicidal activity against Echinochloa crus-galli (barnyard grass) assessed as inhibition of root elongation at 52 uM after 5 days relative to control; type: functional; conditions: 120 h
[19] = Phytotoxicity against Oryza sativa (rice) assessed as inhibition of root elongation at 52 uM after 7 days relative to control; type: organism-based; conditions: in vivo

SMILES	inhibition (Echinochloa crus-galli [1])	Activity (Triticum aestivum [2])	Activity (Oryza sativa [3])	IC50 (Echinochloa crus-galli [4]) [µM]	IC50 (Avena fatua [5]) [µM]	Ratio IC50 [6]	inhibition (Avena fatua [7])	inhibition (Echinochloa crus-galli [8])	IC50 (Triticum aestivum [9]) [µM]	Ratio IC50 [10]	IC50 (Oryza sativa [11]) [µM]	inhibition (Avena fatua [12])	inhibition at 114 µM (Avena fatua [13]) [%]	inhibition at 120 h, 114 µM [14] [%]	inhibition at 6 µM (Avena fatua [15]) [%]	Ratio IC50 (Echinochloa crus-galli [16])	inhibition at 120 h, 6 µM [17] [%]	inhibition at 52 µM (Echinochloa crus-galli [18]) [%]	inhibition at 168 h, 52 µM [19] [%]
CCCCC(=O)ON1C(=O)COc2ccc(Cl)cc21 [6-Cl-4-Val-D-DIBOA]	Active	Non-toxic	Non-toxic	14	3.54	0.16	Active	Active	26.6	7.52	2	Active							
CCC1Oc2c(Cl)cccc2N(O)C1=O [8-Cl-2-Et-D-DIBOA]	Active	Non-toxic	Non-toxic	145	154	2.11	Active	Active	345	2.25	305	Active							
O=C1C(c2ccccc2)Oc2ccc(F)cc2N1O [6-F-2-Ph-D-DIBOA]	Active	Non-toxic	Non-toxic	211	176	5.86	Active	Active	641	3.65	1240	Active							
CCCCC(=O)ON1C(=O)COc2c(Cl)cccc21	Active	Non-toxic	Non-toxic	64	114	11.1	Active	Active	1640	14.4	712	Active	70	18					
CCCC1Oc2ccc(F)cc2N(O)C1=O (stereo unspecified)	Active	Non-toxic	Non-toxic	183	160	1.85	Active	Active	766	4.78	337	Active							
CCC1Oc2ccc(F)cc2N(O)C1=O [6-F-2-Et-D-DIBOA]	Active	Non-toxic	Non-toxic	25	24.4	0.58	Active	Active	63.1	2.59	15	Active							
CCCC1Oc2c(Cl)cccc2N(O)C1=O [8-Cl-2-Pr-D-DIBOA]	Active	Non-toxic	Non-toxic	83	73.2	7.44	Active	Active	393	5.37	614	Active							
CCC(=O)ON1C(=O)COc2ccc(F)cc21 [6F-4Pr-D-DIBOA]	Active	Non-toxic	Non-toxic	9	6.22	0.36	Active	Active	81.9	13.2	3	Active			70	12	25		
CCCCC(=O)ON1C(=O)COc2ccc(F)cc21 [6-F-4-Val-D-DIBOA]	Active	Non-toxic	Non-toxic	8	6.53	0.78	Active	Active	58.2	8.92	6	Active				12			
CCC(=O)ON1C(=O)COc2c(Cl)cccc21 [8-Cl-4-Pr-D-DIBOA]	Active	Non-toxic	Non-toxic	52	321	16.6	Active	Active	1300	4.06	859	Active						70	8
CCC1Oc2ccc(Cl)cc2N(O)C1=O [6-Cl-2-Et-D-DIBOA]	Active	Non-toxic	Non-toxic	840	466	0.07	Active	Active	130	0.28	56	Active							
O=C1C(c2ccccc2)Oc2ccc(Cl)cc2N1O [6-Cl-2-Ph-D-DIBOA]	Active	Non-toxic	Non-toxic	94	197	10.5	Active	Active	690	3.51	992	Active							
CCC(=O)ON1C(=O)COc2ccc(Cl)cc21	Active	Non-toxic	Non-toxic	14	19.3	0.2	Active	Active	46.6	2.42	3	Active							
O=C1C(c2ccccc2)Oc2c(Cl)cccc2N1O [8-Cl-2-Ph-D-DIBOA]	Active	Non-toxic	Non-toxic	109	150	3.51	Active	Active	263	1.75	384	Active							
CCC(=O)Nc1ccc(Cl)c(Cl)c1 [PROPANIL]		Non-toxic	Non-toxic			1.87													
CCCC1Oc2ccc(Cl)cc2N(O)C1=O [6-Cl-2-Pr-D-DIBOA]	Active	Non-toxic	Non-toxic	131	123	1.19	Active	Active	470	3.82	156	Active							
